Patent publication US20160038474A1, “COMPOSITIONS AND METHODS FOR THE MODULATION OF HEMOGLOBIN (S)” (GLOBAL BLOOD THERAPEUTICS, INC., priority 2013, published 2016)

Columns and labels:
Assay type in all cases: in vivo
[1] = Pharmacokinetics after single dose of GBT440 (FIG. 1), rat
Description: (§1) FIG. 1 graphically illustrates the high oral bioavailability, sustained exposure and dramatic RBC partitioning following single dose of GBT440. Certain relevant pharmacokinetic parameters are tabulated below:
(§2) FIG. 1 in parts A, B, and C graphically illustrates the high in vivo oral bioavailability, sustained exposure and the high RBC partitioning following single dose of GBT440.

[2] = Pharmacokinetics after single dose of GBT440 (FIG. 1), dog
Description: as §1, §2

[3] = Pharmacokinetics after single dose of GBT440 (FIG. 1), monkey
Description: as §1, §2

SMILES: CC(C)n1nccc1-c1ncccc1COc1cccc(O)c1C=O [GBT440]
- bioavailability ([1]; in vivo, IV 1.6 mg/kg, PO 7.2 mg/kg, read-out: Oral bioavailability (% F)): 59.8%
- blood plasma ratio ([1]; whole blood and plasma): 69
- bioavailability ([2]; in vivo, IV 1 mg/kg, PO 2.5 mg/kg, read-out: Oral bioavailability (% F)): 36.6%
- blood plasma ratio ([2]; whole blood and plasma): 74.4
- bioavailability ([3]; in vivo, IV 1 mg/kg, PO 4.25 mg/kg, read-out: Oral bioavailability (% F)): 36.1%
- blood plasma ratio ([3]; whole blood and plasma): 70.9
